Source: PMC3009975, “Blocking spinal CCR2 with AZ889 reversed hyperalgesia in a model of neuropathic pain” (Molecular Pain, 2010)
Entries after “also recorded” stand apart in the source; their conditions may differ. Where two headings read alike, the source gives them in different places.

Tests used:
CCI rats = assay: Thermal (heat) hyperalgesia (paw withdrawal latency) in CCI neuropathic rats; assay type: in vivo, rat; conditions: p.o., tested 1 h after dosing
Description: Chronic nerve constriction injury (CCI) was induced as described previously [38] in male Sprague-Dawley rats weighing 125-150 g at the time of surgery. Briefly, under isoflurane anaesthesia, a small incision was made 0.5 cm below the pelvis, and the biceps femoris and the gluteus superficialis (left side) were separated. The sciatic nerve was exposed, isolated, and four loose ligatures (4-0 chromic gut) with 1 mm spacing were placed around it. The nerve was placed back in its natural position and the incision sealed with tissue adhesive (VetbondTM). The animals were allowed to recover for 7-10 days before conducting any behavioural testing. Animals that were not gaining weight or were showing clinical signs of distress (e.g. paralysis, self-mutilation, extensive alopecia) were not included in this study.
Animals were brought to the laboratory 24 h prior to behavioural testing for acclimatization. […] Paw withdrawal latencies were calculated as the mean of two trials conducted with 5 min intervals between measures.
CCI rats and their corresponding naïve controls were used throughout this study. […] In order to assess behavioural pathology, baseline hyperalgesia was determined 1-2 days before pharmacological testing. […] The percentage of anti-hyperalgesia for each rat was calculated according to the following equation: % anti-hyperalgesia = [(value-vehicle)/(naïve-vehicle)]*100.

rats = assay: Side effects during behavioural studies (locomotor activity assay, muscle tone, overt signs); assay type: in vivo, rat; conditions: highest dose (pregabalin 100 mg/kg p.o.); data not shown
[1] = test system: DRG neurons from CCI rats; assay: Calcium imaging of cultured DRG neurons from CCI rats; assay type: cell-based, rat; conditions: 1 μM, before (5 min), during and after 100 nM CCL2; n = 6 cells
Method: Since rCCL2 can activate both CCR2 and CCR5 [25] we used AZ889 to test if a selective CCR2 antagonist can prevent CCL2-induced calcium signalling in native tissue.
Ganglia from L4 to L6 dorsal roots were harvested from CCI animals, 4 to 19 days post-surgery. The tissue was enzymatically digested at 37°C for 90 min with collagenase-A (2 mg/mL) and papain (1 mg/mL) in DMEM. Cells were plated on Poly-D-Lysine coated coverslips and maintained in F12 supplemented with 10% heat inactivated horse serum, 2 mM glutamine-penicillin-streptomycin, and 2 ng/ml NGF and GDNF for 1-3 days in a humidified chamber (5% CO2/95% O2).

rat CCR2 receptor = target: T1, rat CCR2 receptor (Rattus norvegicus, UniProt O55193); assay: Calcium flux assay (FLIPR) in HEK293 s cells (Gαqi5) stably expressing rat CCR2; assay type: cell-based; conditions: read-out: EC50, calcium activation of HEK293 s cells expressing CCR2
T1 construct: expressed in transfected cells; host or cells: HEK293s cells co-expressing chimeric Gαqi5
T1 sequence (O55193 1-373): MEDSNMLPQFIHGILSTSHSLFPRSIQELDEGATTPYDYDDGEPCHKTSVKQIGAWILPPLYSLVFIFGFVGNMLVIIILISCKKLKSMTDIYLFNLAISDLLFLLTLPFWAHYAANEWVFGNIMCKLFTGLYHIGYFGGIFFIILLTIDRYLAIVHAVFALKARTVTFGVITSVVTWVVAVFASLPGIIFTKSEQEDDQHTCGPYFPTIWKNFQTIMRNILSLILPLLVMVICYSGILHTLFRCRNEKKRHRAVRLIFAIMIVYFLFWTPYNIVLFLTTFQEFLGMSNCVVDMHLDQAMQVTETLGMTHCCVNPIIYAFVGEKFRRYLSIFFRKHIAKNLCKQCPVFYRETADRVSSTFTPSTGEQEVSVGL
Description: Chemokine receptors are known to modulate intracellular calcium concentration. A library of designed molecules was screened on HEK cells expressing the receptor using a calcium flux-assay (FLIPR). Compounds capable of blocking the intracellular calcium rise evoked by mouse CCL2 in HEK293 s cells (Gαqi5) stably expressing the rat CCR2 receptor were selected and further profiled by performing dose-response curves. Mouse and rat CCL2 (mCCL2 and rCCL2) purchased from R&D Systems gave similar median effective concentrations (EC50) values (Additional file 1 Figure S1) and mCCL2 was selected to conduct the screening assay. Cells were pre-incubated (30 min) with a given concentration of compound (from 0.04 to 1 μM) and CCR2 calcium-mediated activation was evoked by the addition of mCCL2 (EC50 concentration, 1 nM).
Briefly, HEK293 s cells stably expressing rat CCR2 and the chimeric Gαqi5 were plated (15000 cells per well) in 384-well assay plates in Dulbecco's modified Eagle's medium (DMEM) for 24 h in a humidified atmosphere at 37°C in 5% CO2. After removing the medium by inversion, cells were loaded with the calcium-sensitive dye Fluo4-AM (Molecular Devices), 15 μL per well of 4 μM FLUO-4/Pluronic acid mix (1 mM) in buffer and incubated at 37°C for 1 h in a humidified chamber (5% CO2/95% air). Cells were washed 4 times in Hanks' balanced salt solution buffer supplemented with 20 mM HEPES + 0.25% bovine serum albumin at pH 7.4. Different concentrations of the test compound (from 10 mM stock in dimethyl sulfoxide) were added in buffer for 30 min at 37°C in 5% CO2. In this assay, mouse CCL2 was added at 1 nM in buffer (EC50 value in Figure 1) and mobilization of intracellular calcium was measured online (FLIPR, Molecular Devices). The EC50 and IC50 values were determined using 8-point concentration-response curve using non-linear regression and a four-parameter logistic model (Prism 4.03 software, GraphPad Software Inc).

[2] = test system: DRG neurons from CCI rats; assay: Whole-cell patch clamp, evoked action potential firing in DRG neurons from CCI rats; assay type: cell-based, rat
Method: To assess whether DRG neurons from rats with chronic constriction injury (CCI) were also CCL2-sensitive, we performed whole-cell patch clamp recordings to evaluate the effect of the chemokine on cell excitability. A suprathreshold (500 ms) depolarizing current step was used to evoke a stable baseline of action potentials (Figure 2A) in the absence or presence of locally applied CCL2 (1min) onto the recorded cell.
Ganglia from L4 to L6 dorsal roots were harvested from CCI animals, 4 to 19 days post-surgery. The tissue was enzymatically digested at 37°C for 90 min with collagenase-A (2 mg/mL) and papain (1 mg/mL) in DMEM. […]
DRG cells maintained for 1-3 days in culture were transferred to a recording chamber fixed to the stage of an inverted microscope (Olympus) and constantly perfused (0.5 mL/min) with Dulbecco's phosphate buffered saline (PBS), a standard extracellular bathing solution containing (in mM): 137 NaCl; 8.1 Na2HPO4•7H2O; 2.68 KCl; 1.47 KH2PO4; 0.9 CaCl2; 0.5 MgCl2•6H2O at pH 7 and 275 to 290 mOsm. […] Signals were filtered at 1 kHz, digitized at 10 kHz (Digidata, Molecular Devices) and captured and analyzed off-line (Pclamp9 software, Molecular Devices). Action potentials were recorded with borosilicate glass patch pipettes (2-6 MΩ) filled with solution containing (in mM): 110 K-gluconate, 20 KCl, 10 EGTA, 8 NaCl, 10 HEPES, 1 MgCl2 and 4 Mg-ATP at pH 7.3. […]

[3] = test system: DRG cells harvested from naive rats; assay: Calcium imaging of DRG cells harvested from naive rats; assay type: cell-based, rat; conditions: data not shown
Description: An increased number of action potentials in DRG neurons following CCR2 activation is an intriguing observation since CCR2 is a pertussis toxin (PTX)-sensitive GPCR coupled to inhibitory Gi and/or […]. Additionally, CCR2 activation evokes excitatory Ca^2+ rises in DRG cells but the underlying mechanism is still poorly understood. To gain further insight into CCR2-mediated Ca^2+ mobilization, we next evaluated the sensitivity of both neuronal and non-neuronal cell types in the DRG by recording changes in intracellular calcium evoked by CCL2. […] In mixed-cell cultures from CCI rats, CCL2 evoked an intracellular calcium rise in both neuronal and non-neuronal DRG cells (Figure 3A-C). Non-neuronal cells, satellite cells or microglia, were easily distinguished from neurons by their size, morphology and absence of dendritic processes (Figure 3A).
Cells and spinal cord slices were loaded with Fluo4-AM (4 μM, 30 min) in an oxygenated chamber (5% CO2/95% O2). DRG cells and spinal cord slices were washed in PBS and ACSF respectively and placed in a chamber mounted on the stage of a fluorescent microscope (Olympus). […] For each time-lapse image, the fluorescence intensity (F) was averaged over the soma area. Changes in fluorescence (ΔF) were measured as relative changes from baseline fluorescence (F0) and expressed as: […]

[4] = test system: neuronal cells in spinal cord slices from CCI rats; assay: Calcium imaging of neurons in spinal cord slices from CCI rats; assay type: cell-based, rat; conditions: bath application of 50 nM CCL2; n = 5
Method: (§1) To evaluate this we used spinal cord slices from CCI rats and evaluated if neuronal and non-neuronal cell types were sensitive to CCL2. For these recordings, calcium imaging acquisition was focused on lamina I of the dorsal horn. […] In this region, non-neuronal cells included astrocytes, microglia and other types of glial cells.
(§2) Spinal cord slices from L4 to L6 region were prepared from CCI animals, 4 to 19 days post-surgery, following guidelines by Wan and colleagues. In order to prevent excess bleeding, 20 uL of Xylocaine was injected intramuscularly at several sites on both sides of the spinal cord. Under deep anaesthesia a laminectomy (T11 to L5) was performed. Once exposed, the spinal cord was isolated and submerged in oxygenated ice-cold solution containing (in mM): 250 sucrose, 5 KCl, 2 MgSO4, 1.25 NaH2PO4, 26 NaHCO3 and 10 glucose.

[5] = test system: non-neuronal cells in spinal cord slices from CCI rats; assay: Calcium imaging of non-neuronal cells in spinal cord slices from CCI rats; assay type: cell-based, rat; conditions: bath application of 50 nM CCL2; n = 4
Method: as §1, §2

[6] = Additional file 1 Figure S1, average of 3 independent experiments

Compound: CC(C)C[C@H](CN)CC(=O)O [Pregabalin]
- potency in reducing heat hyperalgesia, fold lower than AZ889 (CCI rats): 10 fold
- muscle tone (rats): clear decrease in muscle tone

Compound: COc1ccc2c(c1)CC[C@@H]1[C@@H]2CC[C@]2(C)[C@@H](NCCCCCCN3C(=O)C=CC3=O)CC[C@@H]12 [U73122]
- effect on CCL2-evoked calcium mobilization in DRG neurons [1]: significant block of the calcium rise peak; also recorded: significantly blocked

Compound: mCCL2: mouse CC chemokine ligand 2 (monocyte chemoattractant protein-1), CCR2 agonist, purchased from R&D Systems
- EC50 (rat CCR2 receptor; [6]): 0.5 nM
- EC50 (rat CCR2 receptor; Figure 1A): 1 nM

Compound: rCCL2: rat CC chemokine ligand 2 (monocyte chemoattractant protein-1), CCR2 agonist, purchased from R&D Systems
- EC50 (rat CCR2 receptor; [6]): 0.8 nM
- increase in evoked firing compared to vehicle ([2]; CCL2 10 nM, local application 1 min, n = 3): 29 ± 9%
- increase in evoked firing (facilitated neuronal firing) ([2]; rCCL2 100 nM, n = 6): 46 ± 13%
- calcium response in DRG cells from naive rats [3]: did not evoke any response
- mean calcium rise peak in neurons [4]: 142.5 ± 87.8%
- calcium response in non-neuronal cells [5]: 57.8 ± 42.3%
